IC50, EC50 and Ki data for 22 molecules are collected here from patent publication US7897593B2, “HIV integrase inhibitors” (priority 2006, dated 2011).

The target in one assay is T1, HIV-integrase (Human immunodeficiency virus type 1 group M subtype B, UniProt P12497).
T1 construct: Recombinant integrase (0.26 ng) was incubated with the beads
In words: HIV-Integrase Inhibition Activity (SPA strand transfer assay). Conditions: recombinant integrase, SPA beads, P33 labeled target DNA. It counts as biochemical. The procedure: HIV-Integrase InhibitionActivity. To evaluate in-vitro activity against HIV-integrase, 5 pmole of biotin labeled substrate DNA was bound to 100 μg of Streptavidin coated PVT SPA beads (Amersham Pharmacia Biotech). Recombinant integrase (0.26 ng) was incubated with the beads for 90 min at 37° C. Unbound enzyme was removed by washing the complex followed by addition of inhibitors and 0.1 fmol of P33 labeled target DNA. The reaction was stopped by adding EDTA to a final concentration of 10 mM. Samples were counted in TopCountNXT (Packard) and the CPM was used as a measure of integration. The reaction condition was as described in A. Engelman and R. Craigie, J. Virol 69, 5908-5911 (1995). The sequences of substrate and target DNA were described in Nucleic Acid Research 22, 1121-1122 (1994). Activity equal to A refers to a compound having IC50=0.001 to 0.01 μM B=0.01-0.1, and C≧0.1 μM respectively.

The test system of assay [1] is recombinant NL-Rluc virus. In words: Inhibition of HIV replication. It counts as cell-based. The conditions noted are these: Human immunodeficiency virus 1, read-out: Antiviral Activity, NL-RLuc virus; three serum conditions described, the one tabulated is not stated.
For a further assay, the target named is T2, purified integrase (Human immunodeficiency virus type 1 group M subtype B, UniProt P12497).
T2 construct: Recombinant integrase (0.26 ng) was incubated with the beads
Kind of assay: HIV-Integrase binding assay (competition with radiolabeled integrase inhibitor). Conditions: competition with [3H]-labeled integrase inhibitor; Cheng and Prusoff. The procedure: HIV-Integrase binding assay. In this assay competitive binding experiments with test compounds and a radiolabeled integrase inhibitor (compound A) are performed against purified integrase. […] Binding reactions were carried out in 96-well white polystyrene assay plates (Corning, #3600). The following was added sequentially to each well: 20 μl of water or 20μl of human serum (Cellgro Cat# 35-060-CL), 5 μl of serially diluted compound (in 50% DMSO/50% integrase SPA buffer), 5 μl of [^3H]-compound I (6,000 cpm/μl in SPA buffer) and 20 μl of bead/DNA/enzyme complex. The plates were shaken for 2 hours and then allowed to sit at room temperature without shaking overnight. The [^3H]-compound I binding was measured using a Topcount scintillation counter. Cheng and Prusoff equations were used to convert the inhibition of compound 1 binding into the corresponding Ki value. Activity equal to A refers to a compound having Ki=0.001 to 0.003 μM while B and C denote compounds having Ki=0.003 to 0.05 μM and Ki≧0.050 μM respectively.

Regarding `CN(C)C(=O)C(=O)N1CCC2(CC1)OCCn1c2nc(C(=O)NCc2ccc(F)cc2)c(O)c1=O` [Example 30, 1-(2-(Dimethylamino)-2-oxoacetyl)-N-(4-fluorobenzyl)-3′-hydroxy-4′-oxo-6′,7′-dihydro-4′H-spiro[piperidine-4,9′-pyrimido[2,1-c][1,4]oxazine]-2′-carboxamide], the half-inhibitory concentration (IC50) at HIV-integrase lay in the range of 1 to 10 nM. In assay [1], the EC50 lay in the range of 10 to 100 nM.

Turning to `CCOC(=O)N1CCC2(CC1)OCCn1c2nc(C(=O)NCc2ccc(F)cc2)c(O)c1=O` [Example 31, Ethyl 2′-(4-fluorobenzylcarbamoyl)-3′-hydroxy-4′-oxo-6′,7′-dihydro-4′H-spiro[piperidine-4,9′-pyrimido[2,1-c][1,4]oxazine]-1-carboxylate], the IC50 at HIV-integrase lay in the range of 1 to 10 nM. The EC50 in assay [1] lay in the range of 1 to 10 nM.

Regarding `Cc1ncn(-c2cc(F)ccc2CNC(=O)c2nc3n(c(=O)c2O)CCOC32CCN(C(=O)C(=O)N(C)C)CC2)n1` [Example 32, 1-(2-(Dimethylamino)-2-oxoacetyl)-N-(4-fluoro-2-(3-methyl-1H-1,2,4-triazol-1-yl)benzyl)-3′-hydroxy-4′-oxo-6′,7′-dihydro-4′H-spiro[piperidine-4,9′-pyrimido[2,1-c][1,4]oxazine]-2′-carboxamide], at HIV-integrase, the IC50 was in the range of 10 to 100 nM. Besides, in assay [1], the EC50 was above 100 nM.

Turning to `CCOC(=O)N1CCC2(CC1)OCCn1c2nc(C(=O)NCc2ccc(F)cc2-n2cnc(C)n2)c(O)c1=O` [Example 33, Ethyl 2′-(4-fluoro-2-(3-methyl-1H-1,2,4-triazol-1-yl)benzylcarbamoyl)-3′-hydroxy-4′-oxo-6′,7′-dihydro-4′H-spiro[piperidine-4,9′-pyrimido[2,1-c][1,4]oxazine]-1-carboxylate], the half-inhibitory concentration (IC50) at HIV-integrase was in the range of 1 to 10 nM. In addition, the EC50 in assay [1] was 1 to 10 nM.

For the molecule `CN(C)C(=O)C(=O)N1CCC2(CC1)NCCn1c2nc(C(=O)NCc2ccc(F)cc2)c(O)c1=O` [Example 34, 1-(2-(Dimethylamino)-2-oxoacetyl)-N-(4-fluorobenzyl)-3′-hydroxy-4′-oxo-4′,6′,7′,8′-tetrahydrospiro[piperidine-4,9′-pyrazino[1,2-a]pyrimidine]-2′-carboxamide], the Ki at purified integrase was 3 to 50 nM. In assay [1], the EC50 was 10 to 100 nM.

As to `Cc1nnc(C(=O)N2CCC3(CC2)NCCn2c3nc(C(=O)NCc3ccc(F)cc3)c(O)c2=O)o1` [Example 35, N-(4-Fluorobenzyl)-3′-hydroxy-1-(5-methyl-1,3,4-oxadiazole-2-carbonyl)-4′-oxo-4′,6′,7′,8′-tetrahydrospiro[piperidine-4,9′-pyrazino[1,2-a]pyrimidine]-2′-carboxamide], the Ki on purified integrase was 3 to 50 nM. The EC50 in assay [1] was 10 to 100 nM.

Regarding `O=C(NCc1ccc(F)cc1)c1nc2n(c(=O)c1O)CCOC21CCN(C(=O)OCc2ccccc2)C1` (centres unmarked) [Example 36, Benzyl 2-(4-fluorobenzylcarbamoyl)-3-hydroxy-4-oxo-6,7-dihydro-4H-spiro[pyrimido[2,1-c][1,4]oxazine-9,3′-pyrrolidine]-1′-carboxylate], the IC50 at HIV-integrase was in the range of 1 to 10 nM. Moreover, the EC50 in assay [1] is 1 to 10 nM.

As to `Cc1ncnn1-c1cc(F)ccc1CNC(=O)c1nc2n(c(=O)c1O)CCOC21CCN(C(=O)OCc2ccccc2)C1` (centres unmarked) [Example 37, Benzyl 2-(4-fluoro-2-(5-methyl-1H-1,2,4-triazol-1-yl)benzylcarbamoyl)-3-hydroxy-4-oxo-6,7-dihydro-4H-spiro[pyrimido[2,1-c][1,4]oxazine-9,3′-pyrrolidine]-1′-carboxylate], the IC50 at HIV-integrase is 10 to 100 nM. In addition, in assay [1], the EC50 is 10 to 100 nM.

On to `CS(=O)(=O)N1CCC2(C1)OCCn1c2nc(C(=O)NCc2ccc(F)cc2)c(O)c1=O` (centres unmarked) [Example 38, N-(4-Fluorobenzyl)-3-hydroxy-1′-(methylsulfonyl)-4-oxo-6,7-dihydro-4H-spiro[pyrimido[2,1-c][1,4]oxazine-9,3′-pyrrolidine]-2-carboxamide], for which the IC50 on HIV-integrase was in the range of 1 to 10 nM. Moreover, in assay [1], the EC50 lay in the range of 10 to 100 nM.

For `Cc1ncnn1-c1cc(F)ccc1CNC(=O)c1nc2n(c(=O)c1O)CCOC21CCN(S(C)(=O)=O)C1` (centres unmarked) [Example 39, N-(4-Fluoro-2-(5-methyl-1H-1,2,4-triazol-1-yl)benzyl)-3-hydroxy-1′-(methylsulfonyl)-4-oxo-6,7-dihydro-4H-spiro[pyrimido[2,1-c][1,4]oxazine-9,3′-pyrrolidine]-2-carboxamide], the IC50 at HIV-integrase was 10 to 100 nM. Also, the EC50 in assay [1] was 10 to 100 nM.

As for `CN(C)C(=O)C(=O)N1CCC2(C1)OCCn1c2nc(C(=O)NCc2ccc(F)cc2)c(O)c1=O` (centres unmarked) [Example 40, 1′-(2-(Dimethylamino)-2-oxoacetyl)-N-(4-fluorobenzyl)-3-hydroxy-4-oxo-6,7-dihydro-4H-spiro[pyrimido[2,1-c][1,4]oxazine-9, 3′-pyrrolidine]-2-carboxamide], the IC50 at HIV-integrase was in the range of 1 to 10 nM. In addition, the EC50 in assay [1] was in the range of 10 to 100 nM.

Take `Cc1ncnn1-c1cc(F)ccc1CNC(=O)c1nc2n(c(=O)c1O)CCOC21CCN(C(=O)C(=O)N(C)C)C1` (centres unmarked) [Example 41, 1′-(2-(Dimethylamino)-2-oxoacetyl)-N-(4-fluoro-2-(5-methyl-1H-1,2,4-triazol-1-yl)benzyl)-3-hydroxy-4-oxo-6,7-dihydro-4H-spiro[pyrimido[2,1-c][1,4]oxazine-9,3′-pyrrolidine]-2-carboxamide]: the IC50 at HIV-integrase was 10 to 100 nM. Moreover, the EC50 in assay [1] is above 100 nM.

For the molecule `CC(C)OC(=O)N1CCC2(C1)OCCn1c2nc(C(=O)NCc2ccc(F)cc2)c(O)c1=O` (centres unmarked) [Example 42, Isopropyl 2-(4-fluorobenzylcarbamoyl)-3-hydroxy-4-oxo-6,7-dihydro-4H-spiro[pyrimido[2,1-c][1,4]oxazine-9,3′-pyrrolidine]-1′-carboxylate], the IC50 at HIV-integrase lay in the range of 1 to 10 nM. The EC50 in assay [1] is 1 to 10 nM.

As for `Cc1ncnn1-c1cc(F)ccc1CNC(=O)c1nc2n(c(=O)c1O)CCOC21CCN(C(=O)OC(C)C)C1` (centres unmarked) [Example 43, Isopropyl 2-(4-fluoro-2-(5-methyl-1H-1,2,4-triazol-1-yl)benzylcarbamoyl)-3-hydroxy-4-oxo-6,7-dihydro-4H-spiro[pyrimido[2,1-c][1,4]oxazine-9,3′-pyrrolidine]-1′-carboxylate], the IC50 at HIV-integrase was 10 to 100 nM. In addition, the EC50 in assay [1] was 10 to 100 nM.

For the molecule `Cc1nnc(C(=O)N2CCC3(C2)OCCn2c3nc(C(=O)NCc3ccc(F)cc3)c(O)c2=O)o1` (centres unmarked) [Example 44, N-(4-Fluorobenzyl)-3-hydroxy-1′-(5-methyl-1,3,4-oxadiazole-2-carbonyl)-4-oxo-6,7-dihydro-4H-spiro[pyrimido[2,1-c][1,4]oxazine-9,3′-pyrrolidine]-2-carboxamide], the Ki at purified integrase lay in the range of 1 to 3 nM. For the same molecule, the EC50 in assay [1] was in the range of 10 to 100 nM.

`CCOC(=O)C(=O)N1CCC2(C1)OCCn1c2nc(C(=O)NCc2ccc(F)cc2)c(O)c1=O` (centres unmarked) [Example 45, Ethyl 2-(2-(4-fluorobenzylcarbamoyl)-3-hydroxy-4-oxo-6,7-dihydro-4H-spiro[pyrimido[2,1-c][1,4]oxazine-9,3′-pyrrolidine]-1′-yl)-2-oxoacetate] returned a Ki at purified integrase of 1 to 3 nM. For the same molecule, the EC50 in assay [1] lay in the range of 10 to 100 nM.

For the molecule `Cc1nnc(C(=O)N2CCC3(C2)OCCn2c3nc(C(=O)NCc3ccc(F)cc3-n3ncnc3C)c(O)c2=O)o1` (centres unmarked) [Example 46, N-(4-Fluoro-2-(5-methyl-1H-1,2,4-triazol-1-yl)benzyl)-3-hydroxy-1′-(5-methyl-1,3,4-oxadiazole-2-carbonyl)-4-oxo-6,7-dihydro-4H-spiro[pyrimido[2,1-c][1,4]oxazine-9,3′-pyrrolidine]-2-carboxamide], the Ki on purified integrase lay in the range of 3 to 50 nM. Also, the EC50 in assay [1] is above 100 nM.

Take `CC1CN(S(=O)(=O)c2cc(F)ccc2CNC(=O)c2nc3n(c(=O)c2O)CCCOC32CCN(C(=O)OCc3ccccc3)CC2)CC(C)N1` (centres unmarked) [Example 49]: on HIV-integrase, the IC50 fell in the range of 10 to 100 nM. Besides, the EC50 in assay [1] is 10 to 100 nM.

As to `CN1CCN(S(=O)(=O)c2cc(F)ccc2CNC(=O)c2nc3n(c(=O)c2O)CCCOC32CCN(C(=O)OCc3ccccc3)CC2)CC1` [Example 50], the IC50 on HIV-integrase is 10 to 100 nM. The EC50 in assay [1] lay within 10 to 100 nM.

For the molecule `O=C(NCc1ccc(F)cc1S(=O)(=O)N1CCOCC1)c1nc2n(c(=O)c1O)CCCOC21CCN(C(=O)OCc2ccccc2)CC1` [Example 52], the IC50 at HIV-integrase was in the range of 10 to 100 nM. Besides, the EC50 in assay [1] was in the range of 10 to 100 nM.

Regarding `O=C(NCc1ccc(F)cc1)c1nc2n(c(=O)c1O)CCOCC21CCN(C(=O)OCc2ccccc2)CC1` [Example 54], at HIV-integrase, the IC50 is 10 to 100 nM. The EC50 in assay [1] was 10 to 100 nM.

Consider `O=C(NCc1ccc(F)cc1)c1nc2n(c(=O)c1O)CCCCC21CCN(C(=O)OCc2ccccc2)CC1` [Example 56], for which the IC50 at HIV-integrase lay within 10 to 100 nM. Besides, in assay [1], the EC50 lay in the range of 10 to 100 nM.

For orientation: IC50 means the concentration at which inhibition is half-maximal. The Ki is the equilibrium dissociation constant of an inhibitor or competing ligand from its target. A higher Ki goes with a looser hold on the target.
